The record followed here is patent US20070254899A1, “Soluble salts of thieno[2,3-d]pyrimidine derivatives” (Dynogen Pharmaceuticals, Inc., priority 2006, published 2007).

“And” between values parts separate entries of the source, which are not always exact repeats. Equal entries are not always repeated. Structures can show the parent of a compound that is named as a salt.

Data set [1] deals with rats. In words: Visceromotor response to colorectal distension, acetic acid-induced colonic hypersensitivity. The class given is in vivo, rat. As to conditions: for Visceromotor response (number of abdominal contractions) to colorectal distension vs vehicle: all doses tested i.p. (ondansetron 1, 5, 10; nisoxetine 3, 10, 30 mg/kg). As to the method: A 10 min recovery was allowed between distensions.
Adult male rats were used in the study.
Ten minute recovery periods were allowed following each distension.
Statistical significance of the treatment groups was assessed using one-way ANOVA followed by Tukey post-test. […] (*) p<0.05, (**) p<0.01, (***) p<0.001

For data set [2], the system named is rats. In words: Water avoidance stress (WAS) model of increased colonic transit, fecal pellet output. The class given is in vivo, rat. As to conditions: for WAS-induced fecal pellet output in 1 hour: all doses tested i.p. (MCI-225, nisoxetine 3, 10, 30; ondansetron 1, 5, 10 mg/kg). As to the method: Ondansetron (5-HT3 receptor antagonist), nisoxetine (NARI) and a combination of ondansetron and nisoxetine were used as comparison compounds. The model provides a method of evaluating the effectiveness of a compound in a specific patient group of IBS sufferers where stress induced colonic motility is considered a significant contributing factor.
Fecal pellet output was measured by counting the total number of fecal pellets produced during 1 hour of WAS.
All rats underwent sham stress (I-hour in stress chamber without water) for 2-4 consecutive days before undergoing WAS (sham was performed until rats produced 0-1 pellet per hour for 2 consecutive days). At the end of the 1-hour stress period, the fecal pellets were counted and recorded.
WAS causes an acceleration of colonic transit, which can be quantified by counting the number of fecal pellets, produced during the stress procedure. Rats were placed for 1-hour into a stress chamber onto a raised platform 7.5 cm×7.5 cm×9 cm (L×W×H) in the center of a stress chamber filled with room temperature water 8 cm in depth.
Control drugs for this study were ondansetron and nisoxetine. Ondansetron was supplied from APIN Chemicals LTD. Nisoxetine was supplied by Tocris. […] All drugs and the vehicle were administered as an i.p. injection in a volume of 0.2 mL.
Statistical significance was assessed using one-way ANOVA followed by Tukey post-test. Statistical differences were compared between the WAS groups and the sham stress group and was considered significant if p<0.05. (*) p<0.05, (**) p<0.01, (***) p<0.001

For data set [3], the system named is ferrets. Description: Cisplatin-induced emesis in the ferret. Type of data set: in vivo, Mustela putario furo. As to the method:
The ability of MCI-225 to reduce retching and vomiting in an accepted model of cytotoxin-induced emesis in the ferret was assessed. Specifically, the experiments described herein investigated the effect of MCI-225 on retching and vomiting induced by cisplatin. Ondansetron was used as a positive control in the model, in view of its known antiemetic activity. Adult male ferrets (Mustela putario furo) weighing 1200-1880 g were purchased from Triple F Farms (Sayre, Pa.) and housed in individual cages at standardized conditions (12:12 h light/dark cycle and 21-23° C.). Prior to the experiments, the ferrets were allowed a 7-10 day acclimatization period to the animal facility. The ferrets were fed a carnivore diet with free access to food and water throughout the course of the study. The use of the ferret model of emesis and the drug treatment were preapproved in accordance with facility standards. A cisplatin solution was prepared by adding preheated (70° C.) saline to cisplatin powder (Sigma-Aldrich Co.) and stirring or sonicating at 40° C. until dissolved. Following administration of the cisplatin and either MCI-225, ondansetron or vehicle alone, the occurrence of retching and vomiting was monitored for a period of 6 hours. Retching was defined as the number of forceful rhythmic contractions of the abdomen occurring with the animal in characteristic posture, but not resulting in the expulsion of upper gastrointestinal tract contents (Watson et al., British Journal of Pharmacology, 115(1): 84-94 (1994)). Vomiting was defined as the forceful oral expulsion of upper gastrointestinal contents. The latency of the retching or vomiting response and the number of episodes were recorded for each animal and summarized for each experimental group (Wright et al., Infect. Immun., 68(4): 2386-9 (2000)). Following one hour of acclimation to the observation cage, ferrets received an intraperitoneal (i.p.) injection of cisplatin (5 mg/kg in 5 mL) followed in about 2 minutes by i.p. injection of a single dose of MCI-225 or ondansetron (Rudd and Naylor, Eur. J. Pharmacol., 322: 79-82 (1997)). Dose-response effects of MCI-225 dosed at 1, 10 and 30 mg/kg i.p. in a 0.5 mL/kg solution or ondansetron dosed at 5 and 10 mg/kg i.p. in a 0.5 mL/kg solution were studied. Each animal received a single-dose drug treatment. In addition, three animals received an initial dose (30 mg/kg i.p.) and a second MCI-225 injection (30 mg/kg i.p.) 180 minutes following the initial dose. […] All groups were randomized.

Data set [4] relates to rats. Description: Small Intestinal Transit Rodent Model (charcoal meal). Type of data set: in vivo, rat. To be noted: for Small intestinal transit, Mean (% of total small intestinal length): 15-min test period. On the procedure: Following an overnight fast, rats were brought to the laboratory in their home cages and received an i.p. injection of one of the following: […] Control rats received no treatment. The treated rats were placed back in the home cages and after 30 min, were fed a 2 mL charcoal meal via an oral gavage. Small intestinal transit was measured following 15 min test-period. Each rat was placed briefly in a glass chamber with IsoFlo for anesthesia and sacrificed. The stomach and the small intestine were removed and the total length of the small intestine was measured. Transit was then measured as the distance that the charcoal meal had traveled along the small intestine and expressed as % of the total length. Animals were randomly assigned to experimental groups and experiments were performed as illustrated in Table 3. Ondansetron was supplied from APIN Chemicals LTD. […] MCI-225 was provided by Mitsubishi Pharma Corp. All drugs were dissolved in a vehicle of 100% propylene glycol (1,2-Propanediol) by sonicating for 10 min. Propylene glycol was obtained from Sigma Chemical Co. Ondansetron, a 5-HT3-receptor antagonist was dosed i.p. at 1, 5, and 10 mg/kg. […] All doses were delivered in a final volume of 200 μL. Animals in the vehicle control group received 200 μL of 100% Propylene glycol and animals in the normal control group were untreated. Small intestinal transit in rats was investigated by the passage of a charcoal meal along the small intestine during a defined time period (15-min). The animals were deprived of food for 12-16 hrs prior to the experiments. Rats were given a charcoal meal (a mixture of charcoal, gum arabic, and distilled water) as a 2 mL oral gavage and were sacrificed after a 15-min test period. The distance traveled by the charcoal meal was quantified as a percent of the small intestinal length, using the following equation: Transit (%)=cm traveled by meal/cm total small intestinal length×100 […] Statistical analysis was performed to determine mean, standard error to the mean and standard deviation for each group (See Table 3). Differences between individual dose groups within treatments and comparisons between drug-treated and vehicle-treated groups were determined using an unpaired t test considering that when % is used as a relative unit, t-statistic is relevant. In all cases p<0.05 was considered statistically significant.

The format of data set [5] is physicochemical. On the procedure:
(§1) Form I was characterized by pKa, LogP, LogPion and LogD determination and prediction, XRPD before and after storage at 40° C./75% RH for 4 weeks, PLM, DSC and TGA, ^1HNMR, solubility in water with pH measurement, HPLC purity before and after storage at 40° C./75% RH for 4 weeks, water content, GVS with XRPD and purity analysis after measurement, and VT-XRPD.
As expected from the predicted values, the compound is suitable for a mono salt screen and should form strong stable salts.

Data set [6] in a line: GVS (gravimetric vapour sorption), single cycle. The class given is physicochemical. As to the method: as §1
This weight increase was not associated with any significant hysteresis between the adsorption and desorption cycles.

Data set [7] in a line: Storage at 40° C./75% RH (XRPD, HPLC purity, colour). The class given is physicochemical.
How the values of data set [8] were obtained: The suspension was then equilibrated at 25° C. for 24 hours followed by a pH check and filtration through a glass fibre C 96 well plate. […] HPLC using a generic 5 minute method was used to quantify the amount of sample in solution with reference to a standard dissolved in DMSO at 0.1 mg/ml. Various volumes of the standard, diluted and undiluted tests were injected. […] If sufficient solid remained in the filter plate the XRPD was normally checked for phase changes, hydrate formation, amorphization, crystallization and other changes.

The format of data set [9] is physicochemical. On the procedure: as §1
LogP, LogPion and LogD values were measured by using different ratios of 0.1 5M KCl(Aq) to 1-octanol, with refinement of a multiset of the data. The measured LogP, 3.96, is in good agreement with the predicted values.
The source holds these as a separate data set.

Where [10] appears, read: 30 mg/kg b.i.d, i.p., 180-min interval.

Turning to `Cc1nccn1CC1CCc2c(c3ccccc3n2C)C1=O` (centres unmarked) [Ondansetron], the “Visceromotor responses at moderate and high intraluminal pressure” value in [1] (10 mg/kg i.p., 30 and 60 mmHg) is “did not abolish the responses”. The “Behavioral activity of the rats” value in [1] (1, 5 or 10 mg/kg i.p.) was “No significant changes in the behavioral activity”. Besides, the “Visceromotor response (number of abdominal contractions) to colorectal distension vs vehicle” value in data set [1] is reported as “dose-dependent decrease in the number of abdominal contractions”. Further, the “WAS-induced fecal pellet output in 1 hour” value in [2] is recorded as “dose-dependent inhibition”. In addition, the “Latency of the emetic response following cisplatin” value in data set [3] (all doses tested i.p.) is reported as “increase in the latency”. In data set [3] (all doses tested i.p. (ondansetron 5, 10; MCI-225 1, 10, 30 mg/kg)), the “Emetic events (retches and vomits) induced by cisplatin” value is “dose-dependently reduced the number of emetic events”. Further, the “Small intestinal transit vs vehicle” value in [4] (all doses tested i.p. (MCI-225 3, 10, 30; ondansetron 1, 5, 10 mg/kg)) was “significant reduction in small intestinal transit”.
Regarding `Cc1cc2c(-c3ccccc3F)nc(N3CCNCC3)nc2s1` [MCI-225, 4-(2-fluorophenyl)-6-methyl-2-(piperazin-1-yl)thieno[2,3-d] pyrimidine hydrochloride], the “Animals in which the visceromotor response to CRD was eliminated” value in data set [1] (30 mg/kg i.p., acetic acid sensitized rats) is 50 % of the animals. For the same compound, the Latency in data set [3] (1 mg/kg i.p.) amounted to 186 ± 35 min; in data set [3] (10 mg/kg i.p.) it was 192 ± 57 min; in data set [3] (setting [10]), 360 ± 0 min; in data set [3] (30 mg/kg i.p.) it was 287 ± 38 min. Besides, the “Retches (360 min)” value turned out to be 30.4 ± 9.1 in data set [3] (1 mg/kg i.p.), 22.9 ± 10.3 in [3] (10 mg/kg i.p.), 0.0 ± 0.0 in data set [3] (setting [10]) and 3.3 ± 2.2 in [3] (30 mg/kg i.p.). For the same compound, the “Total Events” value came to 32.9 ± 9.8 in data set [3] (1 mg/kg i.p.), 25.5 ± 11.1 in [3] (10 mg/kg i.p.), 0.0 ± 0.0 in data set [3] (setting [10]) and 4.0 ± 2.6 in data set [3] (30 mg/kg i.p.). In addition, the “Vomits (360 min)” value in data set [3] (1 mg/kg i.p.) came out at 2.5 ± 0.7; in [3] (10 mg/kg i.p.) it was 2.6 ± 1.0; in data set [3] (setting [10]), 0.0 ± 0.0; in data set [3] (30 mg/kg i.p.) it was 0.7 ± 0.5. Besides, the “Small intestinal transit, Mean (% of total small intestinal length)” value is 30.1% in [4] (3 mg/kg i.p.); 4.2±2.6% and 4.2% in data set [4] (10 mg/kg i.p., hydrochloride); 8.8% in data set [4] (30 mg/kg i.p.).
Regarding `CNCCC(Oc1ccccc1OC)c1ccccc1` (centres unmarked) [Nisoxetine], the “Behavior in the home cage during the experiments” value in data set [1] (30 mg/kg i.p.) is on record as “increased exploratory behavior”. For the same compound, the “Visceromotor response (number of abdominal contractions) to colorectal distension vs vehicle” value in data set [1] is listed as “no significant effect”. The “Fecal pellets produced during WAS vs vehicle treated group” value in data set [2] (10 and 30 mg/kg i.p.) is “significantly fewer fecal pellet produced”. In addition, in data set [2], the “WAS-induced fecal pellet output in 1 hour” value is listed as “reduced by all doses”. In data set [4] (30 mg/kg i.p.), the “Animals with charcoal meal completely retained in the stomach” value was 4 out of 5 and the Small intestinal transit result is recorded as “almost completely inhibited the transit”. In addition, the Small intestinal transit entry in data set [4] (3 or 10 mg/kg i.p.) is “tendency to decrease small intestinal transit”.
As to “4-(2-fluorophenyl)-6-methyl-2-(piperazin-1-yl)thieno[2,3-d] pyrimidine hydrochloride [MCI-225]”, in [5], the “pKa (basic)” value was 8.64 and the “pKa of second basic centre” value came to 0.81. Moreover, in [6] (between 0 and 90% RH), the “GVS total weight increase” value worked out at 5.0%. Further, the GVS weight increase entry in data set [6] (between 20% and 30% RH, equivalent to 1.0 moles of water) is on record as “about 4.8%”. For the same compound, the “Appearance of material surface after storage” value in data set [7] (4 weeks at 40° C./75% RH, ambient light) was “gone yellow”. Further, the “HPLC purity after storage” value in data set [7] (4 weeks at 40° C./75% RH, ambient light, initial purity 100%) is on record as 99.0%. The “XRPD pattern after storage” value in data set [7] (40° C./75% RH, four weeks) was “unchanged”. In data set [8], the Aqueous solubility amounted to 2.1 mg/mL; the “Aqueous solubility, equivalent as the free base” value was 1.7 mg/mL; the “pH after solubility equilibration” value stood at 6.33. In [9], this compound showed a LogP of 3.96 and a LogPion of 1.41. The compound further yielded a pH-dependent lipophilicity (LogD) in data set [9] (pH 7.4) of 2.72.
